Laboratory results: patent US20220395472A1 (Dermavant Sciences GmbH, priority 2021, published 2022)
Read-outs that look alike come from different tables or passages of the source.

Assays:
[1] = tested on: adults with plaque psoriasis; experiment: Long-term extension study (PSOARING 3): Dermatology Life Quality Index (DLQI); type: in vivo, human; set-up: key to DLQI Total Score, Observed, Mean / DLQI Total Score, Observed, Median: DLQI total score 0–30; higher = greater quality-of-life impairment
From the text: Subjects completed the DLQI questionnaire. The DLQI is a simple, validated, dermatology specific, 10 question questionnaire to assess the impact of the disease on a subject's quality of life. The DLQI is an important outcome measure in dermatology clinical trials and is the most frequently used instrument in randomized, controlled dermatology trials. The DLQI can be analyzed as a total score (where a higher score indicates greater impairment in quality of life) and can also be scored for the following dimensions: Symptoms and Feelings (Items 1 and 2), Daily Activities (Items 3 and 4), Leisure (Items 5 and 6), Work and School (Item 7), Personal Relationships (Items 8 and 9), and Treatment (Item 10).
The DLQI is a 10 item subject reported outcome, 6 domain measure that assessed the extent to which the skin condition had affected the subject's quality of life over the past week. The total score (0 to 30) is the sum of 10 questions with each ranging from 0 to 3. The DLQI was assessed at 4 week intervals. If one question was left unanswered, this was scored as 0 and the scores were summed and expressed as usual out of a maximum of 30. If ≥2 questions were left unanswered, the total DLQI score was considered missing.
DLQI total score and sub scores on DLQI domains and their changes from baseline as well as percent change from baseline values were summarized descriptively. Additional details of the analysis of the DLQI are provided in the SAP.

[2] = tested on: adult and adolescent subjects with AD; details: cited from earlier work
[3] = Week 16 OC, Tapinarof (Pivotal)
[4] = Week 40 OC, Tapinarof (Pivotal)

CC(C)c1c(O)cc(/C=C/c2ccccc2)cc1O [Tapinarof, 3,5-Dihydroxy-4-isopropyl-trans-stilbene]
DLQI Total Score, Observed, Mean ([1]; Baseline, Overall): 4.3
DLQI Total Score, Observed, Median ([1]; Baseline, Overall): 2.0
DLQI Total Score, Observed, Mean ([1]; Baseline, Tapinarof (Pivotal)): 3.3
DLQI Total Score, Observed, Median ([1]; Baseline, Tapinarof (Pivotal)): 2.0
mean (SD) DLQI total score ([1]; Week 16, OC, Tapinarof (Pivotal) group): 2.0 (3.23)
mean (SD) DLQI total score ([1]; Week 16, OC, Vehicle (Pivotal) group): 3.0 (5.19)
DLQI Total Score, CFBL, Mean ([1]; Week 16 OC, Overall): −1.7
DLQI Total Score, CFBL, Median ([1]; Week 16 OC, Overall): −1.0
DLQI Total Score, Observed, Mean ([1]; Week 16 OC, Overall): 2.3
DLQI Total Score, Observed, Median ([1]; Week 16 OC, Overall): 1.0
DLQI Total Score, Percent CFBL, Mean ([1]; Week 16 OC, Overall): −30.7%
DLQI Total Score, Percent CFBL, Median ([1]; Week 16 OC, Overall): −60.0%
mean (SD) DLQI total score ([1]; Week 16 OC, Overall): 2.3 (4.02)
DLQI Total Score, CFBL, Mean [1, 3]: −1.0
DLQI Total Score, CFBL, Median [1, 3]: 0.0
DLQI Total Score, Observed, Mean [1, 3]: 2.0
DLQI Total Score, Observed, Median [1, 3]: 1.0
DLQI Total Score, Percent CFBL, Mean [1, 3]: −21.3%
DLQI Total Score, Percent CFBL, Median [1, 3]: −50.0%
DLQI Total Score, CFBL, Mean ([1]; Week 16 OC, Vehicle (Pivotal)): −3.1
DLQI Total Score, CFBL, Median ([1]; Week 16 OC, Vehicle (Pivotal)): −3.0
DLQI Total Score, Observed, Mean ([1]; Week 16 OC, Vehicle (Pivotal)): 3.0
DLQI Total Score, Observed, Median ([1]; Week 16 OC, Vehicle (Pivotal)): 1.0
DLQI Total Score, Percent CFBL, Mean ([1]; Week 16 OC, Vehicle (Pivotal)): −45.9%
DLQI Total Score, Percent CFBL, Median ([1]; Week 16 OC, Vehicle (Pivotal)): −73.0%
mean (SD) DLQI total score ([1]; Week 40, OC, Tapinarof (Pivotal) group): 1.6 (2.36)
mean (SD) DLQI total score ([1]; Week 40, OC, Vehicle (Pivotal) group): 2.0 (4.23)
DLQI Total Score, CFBL, Mean ([1]; Week 40 OC, Overall): −2.0
DLQI Total Score, CFBL, Median ([1]; Week 40 OC, Overall): −1.0
DLQI Total Score, Observed, Mean ([1]; Week 40 OC, Overall): 1.7
DLQI Total Score, Observed, Median ([1]; Week 40 OC, Overall): 1.0
DLQI Total Score, Percent CFBL, Mean ([1]; Week 40 OC, Overall): −41.6%
DLQI Total Score, Percent CFBL, Median ([1]; Week 40 OC, Overall): −72.1%
DLQI Total Score, CFBL, Mean [1, 4]: −1.1
DLQI Total Score, CFBL, Median [1, 4]: 0.0
DLQI Total Score, Observed, Mean [1, 4]: 1.6
DLQI Total Score, Observed, Median [1, 4]: 1.0
DLQI Total Score, Percent CFBL, Mean [1, 4]: −25.0%
DLQI Total Score, Percent CFBL, Median [1, 4]: −61.3%
DLQI Total Score, CFBL, Mean ([1]; Week 40 OC, Vehicle (Pivotal)): −3.9
DLQI Total Score, CFBL, Median ([1]; Week 40 OC, Vehicle (Pivotal)): −3.0
DLQI Total Score, Observed, Mean ([1]; Week 40 OC, Vehicle (Pivotal)): 2.0
DLQI Total Score, Observed, Median ([1]; Week 40 OC, Vehicle (Pivotal)): 0.0
DLQI Total Score, Percent CFBL, Mean ([1]; Week 40 OC, Vehicle (Pivotal)): −69.2%
DLQI Total Score, Percent CFBL, Median ([1]; Week 40 OC, Vehicle (Pivotal)): −88.9%
reported TEAEs ([2]; 1% BID arm): 70%
proportion subjects with ≥75% improvement in EASI ([2]; 1% BID): 60%
Treatment success for IGA (clear or almost clear with minimum 2-point improvement) ([2]; 1% QD arm, Week 8): 49%
proportion subjects with ≥75% improvement in EASI ([2]; 1% QD arm, Week 8): 57%
Treatment success for IGA (clear or almost clear with minimum 2-point improvement) ([2]; 1% QD arm, Week 12): 46%
proportion subjects with ≥75% improvement in EASI ([2]; 1% QD arm, Week 12): 57%
reported TEAEs ([2]; 1% QD arm): 54%
proportion subjects with ≥75% improvement in EASI ([2]; 1% QD): 51%
